Reference: patent US9376466B2, “Peptide inhibitors of caspase 2 activation” (The Trustees of Columbia University in the city of New York, priority 2011, dated 2016)
“Also recorded” adds a separate entry of the source.

Legend:
Format in all cases: cell-based, rat
[1] = test system: Caspase 2 bound to endogenous RAIDD; assay: Caspase 2 and RAIDD co-immunoprecipitation in primary hippocampal neurons; conditions: primary hippocampal neurons treated with AFDAFC-Pen1 prior to Aβ1-42; Western blot; FIG. 13
Description: Caspase 2 and RAIDD Co-Immunoprecipitation (IP). Mouse IgG magnetized beads (Invitrogen) were pre-coated with a RAIDD antibody (anti-CRADD; Abnova) for 2 hrs at 4° C. on a rotator. 2 μg of antibody was used per 30 μl of beads. Primary rat hippocampal neurons were treated with Aβ1-42 (3 μM) for 1 or 2 hrs. Cell lysates were prepared using CHAPS lysis buffer. 70-120 μg of lysates were loaded onto anti-CRADD pre-coated beads and incubated overnight at 4° C. on a rotator. Following the overnight incubation, the captured proteins were boiled off the beads at 100° C. for 5 mins. The immunoprecipitated samples, along with inputs, were then subjected to Western blotting using affinity purified polyclonal anti-Caspase 2.

[2] = test system: primary hippocampal neurons; assay: Cell survival assay, primary hippocampal neurons treated with Aβ1-42; conditions: AFDAFC-Pen1 final concentration 80 nM, survival quantified after 1 day, n=3, FIG. 7
Description: Peptide Preparation: AFDAFC (SEQ ID NO: 1) was synthesized by Multiple Peptide Systems (San Diego, Calif.). Lyophilized peptide was resuspended in sterile ddH2O and linked in equimolar amounts with Pen1 (Troy et al. Proc. Natl. Acad. Sci. U.S.A. 93: 5635-5640 (1996)) for a stock concentration of 80 μM. AFDAFC-Pen1 was used at a final concentration of 80 nM.
Embryonic day 18 rat fetuses were removed from CO2-sacrificed pregnant Sprague Dawley rats (Charles River). The hippocampus was dissected out from surrounding tissue and the meninges completely removed. Pooled tissue was mechanically dissociated in a serum-free defined medium. […]
Cell Survival Assay. Hippocampal or sympathetic neuron survival was scored as previously reported (Troy et al., J Neurosci. 17:1911-8, 1997). […] Intact nuclei were quantified using a hemacytometer. Triplicate wells were scored and values reported as mean±SEM. Significance was calculated by Student's t-test. For sympathethic neurons, each culture was scored as numbers of living, phase-bright neurons counted in the same field at various times. Three replicate cultures were assessed for each condition, and data are normalized to numbers of neurons present in each culture at the time of Aβ1-42 addition or NGF deprivation and reported as mean±SEM.

[3] = test system: Bim; assay: Western blot of Bim protein in hippocampal neuron cultures; conditions: primary hippocampal neurons treated with AFDAFC-Pen1 prior to Aβ1-42; FIG. 14
Description: Cell Culture of primary hippocampal neuron cultures. Neurons were cultured as previously described (Akpan et al., J Neurosci. 31:8894-904, 2011). Briefly, embryonic day 18 rat fetuses were removed from CO2-sacrificed pregnant Sprague Dawley rats (Charles River). The hippocampus was dissected from surrounding tissue and the meninges removed. Pooled hippocampi were mechanically dissociated in a serum-free defined medium. Medium consisted of a 1:1 mixture of Eagle's MEM and Ham's F12 (Invitrogen) supplemented with glucose (6 mg/ml), insulin (25 μg/ml), selenium (30 nM), progesterone (20 nM), transferrin (100 μg/ml), putrescine (60 μg/ml), penicillin (0.5 U/ml), and streptomycin (0.5 μg/ml). Dissociated cells were grown on poly-D-lysine coated plates or 8-well chamber slides. Neurons were cultured for 7 days prior to experimental treatments.
Western Blot. Hippocampal neurons or sympathetic neurons were lysed in CHAPS lysis buffer ([…], 50 mM HEPES, 0.1% CHAPS, protease inhibitor tablet, pH 7.4). Protein concentration was determined using BioRad protein assay reagent (Bio-Rad). Equal amounts of protein were loaded onto 10% or 12% polyacrylamide gels. […] Proteins were detected using either enhanced chemiluminescence (Thermo Scientific) or fluorescence using the Odyssey infrared imaging system (LI-COR Biosciences). The relative densities of immunopositive bands were analyzed using ImageJ.

**Q.** How did the “Aβ1-42-induced binding of Caspase 2 to RAIDD” value [1] turn out when “AFDAFC-Pen1: Caspase 2 activation inhibitory peptide AFDAFC (SEQ ID NO: 1) conjugated to cell-penetrating peptide Pen1 (RQIKIWFQNRRMKWKK)” was run?
**A.** The value was “reduces Aβ1-42-induced binding of Caspase 2 to RAIDD”.

**Q.** What about the “Aβ-mediated cell death (survival)” value [2] of the same substance?
**A.** The value was “abrogates Aβ-mediated cell death”.

**Q.** And the “Bim induction elicited by Aβ1-42 (protein level)” value [3]?
**A.** The value was “preventing Bim induction; also recorded: prevents Bim induction”.
